According to US6586475B1, “β-amyloid protein production/secretion inhibitors” (Takeda Chemical Industries, Ltd., priority 1998, dated 2003):

test system: amyloid-β protein Aβ1-40; assay: Inhibition of production and/or secretion of Aβ1-40 in IMR-32 cells (EIA of supernatant); assay type: cell-based; details: test compound 10 μM; human neuroblastoma IMR-32 cells, 24 hours; percentage relative to the control
Experimental: (§1) Compounds of the present invention were tested for an inhibitory activity of the production and/or secretion of amyloid-β protein (references: Science, 264, 1336 (1994) and Biochemistry, 34, 10272 (1995)).
(§2) Human neuroblastoma IMR-32 cells: purchased from American Type Culture Center.
(§3) Standard Aβ1-40 and Aβ1-42: purchased from Bachem Co.
(§4) IMR-32 cells were cultivated in a flask (Falcon, 750 ml) containing 10% FCS/DMEM medium, in an atmosphere of 10% CO2/90% air, at 37° C. to be in confluence. The cultured cells were seeded into a 48-well plate in a density of 2.5×10^5 cells/well, and incubated therein for 3 days under the same conditions as above. Then, the culture medium was removed through suction. […]
(§5) BAN-50 antibody or BNT-77 antibody was used as the primary antibody. […] To determined the Aβ1-42, BC-05 was used as the secondary antibody. […]
(§6) The plate was washed three times with PBS, and 100 μl of an HRP-labeled secondary antibody (BA-27 antibody or BC-o5 antibody labeled with HRP: horseradis peroxidase) as dissolved in a buffer for secondary reaction (20 mM phosphate buffer, pH 7.0; 400 mM NaCl; 2 mM EDTA; 1% BSA) was added thereto. […] Then, using a plate reader (MTP-32 Microplate Reader, by Corona Co.), the sample on the plate was subjected to calorimetric determination (at 450 nm). […]

Row | SMILES | Aβ1-40 (%)
1 | O=C(NCCN1CCCCC1)c1ccc(OCc2ccc(-c3ccccc3)cc2)cc1 [Example 8, 4-(4-Biphenylylmethoxy)-N-(2-piperidinoethyl)benzamide] | 39

test system: amyloid-β protein Aβ1-42; assay: Inhibition of production and/or secretion of Aβ1-42 in IMR-32 cells (EIA of supernatant); assay type: cell-based; details: test compound 10 μM; human neuroblastoma IMR-32 cells, 24 hours; percentage relative to the control
Experimental: as §1, §2, §3, §4, §5, §6

Row | SMILES | Aβ1-42 (%)
2 | O=C(NCCN1CCCCC1)c1ccc(OCc2ccc(-c3ccccc3)cc2)cc1 [Example 8, 4-(4-Biphenylylmethoxy)-N-(2-piperidinoethyl)benzamide] | 63

test system: not listed separately; assay: Penetration in brain; details: in vivo

Row | SMILES | penetration in brain
3 | O=C(NCCN1CCCCC1)c1ccc(OCc2ccc(-c3ccccc3)cc2)cc1 [Example 8, 4-(4-Biphenylylmethoxy)-N-(2-piperidinoethyl)benzamide] | excellent penetration in brain

test system: not given; assay: not given; details: not given

Row | SMILES | melting point
4 | CCCN(CCC)CCc1ccc(OCc2ccc3ccccc3c2)cc1.Cl | 113 to 115 °C
5 | CCCN(CCC)CCc1ccc(OCc2ccc(Cl)cc2Cl)cc1.Cl | 122 to 123 °C
6 | CCCN(CCC)CCc1ccc(OCc2ccc(-c3ccccc3)cc2)cc1.Cl | 149 to 150 °C
7 | CCCN(CCC)CCc1ccccc1OCc1ccc2ccccc2c1.Cl | 146 to 147 °C
8 | CCCN(CCC)CCc1cccc(OCc2ccc3ccccc3c2)c1.Cl | 115 to 116 °C
9 | CCCN(CCC)CCc1cccc(OCc2ccc(-c3ccccc3)cc2)c1.Cl | 108 to 110 °C
10 | CCCN(CCC)CCc1cccc(OCc2ccc(Cl)cc2Cl)c1.Cl | 76 to 78 °C
11 | CCCN(CCC)CCc1cccc(OCc2cccc3ccccc23)c1.Cl | 140 to 142 °C
12 | O=C(NCCN1CCCCC1)c1ccc(NC(=O)c2ccc(-c3ccccc3)cc2)cc1 [Example 26, N-[4-{[2-(Piperidinoethyl)amino]carbonyl}phenyl](4-biphenylyl)carboxamide] | 247 to 252 °C (dec.)
13 | O=C(NCCN1CCCC1)c1ccc(NC(=O)c2ccc(-c3ccccc3)cc2)cc1 [Example 27] | 241 to 245 °C (dec.)
